{
  "source": "patent US20030119910A1",
  "about": "“Therapeutic or preventing agent for diseases caused by decrease in the expression level of klotho protein” (Kyowa Hakko Kogyo Co., Ltd., priority 2001, published 2003)",
  "assay_type_in_all_cases": "in vivo, mouse",
  "key": {"[1]": {"system": "male homozygous klotho mutant mice", "assay": "Male klotho mutant homozygotes raised on feed: indices of premature aging-like syndrome (blood sugar, serum inorganic phosphorus, body weight)", "conditions": "ornithine in feed", "excerpt": "(§1) Mice carrying a klotho mutation were bred by mating a pair of heterozygous klotho mutant mice provided by Tumor Biology, Pathology, Kyoto University Graduate School of Medicine. Klotho mutant homozygotes, klotho mutant heterozygotes and wild-type mice were confirmed by PCR. Male klotho mutant homozygotes were raised on the feed prepared in Example 1 or the feed prepared in Comparative Example 1 and were intermittently weighed (number of animals: 4/group). The mice were given the powdery feed through a commercially available powder feeder (KN-675 No. 4, Natsume Seisakusho) and filtered running water, both ad libitum. The mice were raised in an SPF (specific pathogen-free) room kept at a temperature of 24±1° C. and a humidity of 55±10%. The expression level of Klotho protein was expressed as relative values based on the average value of the group raised on the feed of Comparative Example 1 up to the age of 6 weeks as 100."}, "Klotho protein": {"system": "Klotho protein", "assay": "Expression level of Klotho protein in the kidneys of male klotho mutant homozygotes raised on feed", "conditions": "male homozygous klotho mutant mice, ornithine in feed", "excerpt": "The determination of Klotho protein can be carried out by methods such as immune precipitation, Western blotting and enzyme-linked immunosorbent assay (ELISA) using an anti-Klotho protein antibody, and the determination of mRNA for the klotho gene can be carried out by methods such as Northern blot hybridization and reverse transcription-polymerase chain reaction (RT-PCR). The determination methods and methods for obtaining tissue samples, klotho gene, Klotho protein, probe DNA, primers, antibodies, etc. to be used in the determination are described in WO 98/29544.\nas §1, with “The mice were raised in an SPF (specific pathogen-free) room kept at a temperature of 24±1° C. and a humidity of 55±10%.” left out"}, "[2]": {"system": "female klotho mutant homozygotes", "assay": "Body weight of female klotho mutant homozygotes raised on feed", "conditions": "female homozygous individuals, ornithine in feed", "excerpt": "as §1, with “The mice were raised in an SPF (specific pathogen-free) room kept at a temperature of 24±1° C. and a humidity of 55±10%.” left out\nFemale klotho mutant homozygotes obtained by the same method as in Example 3 were raised on the feed of Example 1 or the feed of Comparative Example 1 in the same manner as in Example 3 up to the age of 8 weeks, and their body weight was measured. […]\nFemale klotho mutant homozygotes obtained by the same method as in Example 3 were raised on the feed of Example 2 or the feed of Comparative Example 2 in the same manner as in Example 3 up to the age of 6 weeks, and their body weight was measured. […]"}, "[3]": {"system": "female klotho mutant homozygotes", "assay": "Life span of female klotho mutant homozygotes raised on feed", "conditions": "ornithine in feed", "excerpt": "Female klotho mutant homozygotes obtained by the same method as in Example 3 were raised on the feed of Example 1, the feed of Comparative Example 1, the feed of Example 2 or the feed of Comparative Example 2 (number of animals: 4/group) to observe their life span. The number of mice that died before reaching the age of 11 weeks was 0 and 2 in the groups fed on the feed of Example 1 and the feed of Comparative Example 1, respectively, and was 1 and 2 in the groups fed on the feed of Example 2 and the feed of Comparative Example 2, respectively."}, "[4]": {"system": "female homozygous klotho mutant mice", "assay": "Breeding results of female homozygous klotho mutant mice raised on feed", "conditions": "ornithine in feed", "excerpt": "Male homozygous klotho mutant mice were raised on the feed of Comparative Example 3 and female homozygous klotho mutant mice were raised on the feed of Example 7 or the feed of Comparative Example 2, both to the age of 8 weeks. These male and female mice were mated and their breeding results were compared between the female group fed on the feed of Example 7 and that fed on the feed of Comparative Example 2. During the mating period, the males were transferred into the cages of females and so fed on the same feeds as the respective females."}},
  "data": [
    {"smiles": "NCCC[C@H](N)C(=O)O", "note": "[ornithine]", "values": [
      {"measurement": "Effect on premature aging-like syndrome", "setting": "[1]", "value": "inhibitory effects on premature aging-like syndrome"},
      {"measurement": "Effect on expression level of kidney Klotho protein", "setting": "Klotho protein", "value": "effective in raising the expression level of kidney Klotho protein"},
      {"measurement": "Effect on body weight", "setting": "[2]", "value": "weight-increasing effect"},
      {"measurement": "Effect on life span", "setting": "[3]", "value": "effective in prolonging life span"},
      {"measurement": "Effect on breeding result", "setting": "[4]", "value": "improved the breeding result"}
    ]}
  ]
}
